Assay results as given in patent US7960427B2, “5-hydroxyindole-3-carboxylate derivatives and uses thereof” (priority 2004, dated 2011).
In brackets after ≈: the same amount, converted by molar mass. Where a name gives a salt, the structure may show the parent alone.

Legend:
HBeAg = assay: In vitro anti-HBV activity: HBeAg production in HBV-infected 2.2.15 cells (RIA); assay type: cell-based, Hepatitis B virus (HBV); details: for IC50: Hepatitis B virus, read-out: HBeAg IC50; for HBeAg SI: selectivity index
Description: (§1) All compounds were evaluated for their anti-HBV activities, namely the ability to inhibit the replication of HBV DNA and the production of HBsAg and HBeAg in HBV-infected 2.2.15 cells.
(§2) The samples were dissolved in DMSO for appropriate concentrations, and then each was diluted 3-fold with culture medium. The 2.2.15 cells were planted into 96-well culture plates. […] The culture supernatants and 2.2.15 cells were collected respectively on the 8th plant day. The secretion concentrations of HBsAg and HBeAg in the culture supernatants were measured by RIA on SPRIA Kit for Detection of HBsAg and HBeAg (Beijing North Institute of Biological Technology), and the replication of HBV DNA was measured by dot hybridization with a^32PdCTP (FuRui Biological Technology Ltd., China).

2.2.15 cells = assay: Cytotoxicity (TC50) in 2.2.15 cells; assay type: cell-based
HBV DNA = assay: In vitro anti-HBV activity: replication of HBV DNA in 2.2.15 cells (dot hybridization); assay type: cell-based, Hepatitis B virus (HBV); details: for IC50: Hepatitis B virus, read-out: DNA replication IC50; for DNA replication SI: selectivity index
Method in brief: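 HBV-producing 2.2.15 cells exposed to 3-fold serial dilutions of compound (DMSO stocks diluted in medium); cells and supernatants harvested on day 8. Intracellular HBV DNA replication quantified by dot hybridization with α-32P-dCTP probe; HBsAg/HBeAg in supernatant by RIA.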

[1] = tested on: influenza A virus, strain A/jifang/90-15; assay: microbe, parasite or virus in culture; assay type: cell-based; details: for IC50: Influenza A virus, Influenza strain A/jifang/90-15, MDCK cells, CPE, Reed-Muench, read-out: IC50; for SI: Influenza strain A/jifang/90-15
[2] = tested on: Madin-Darby canine kidney (MDCK) cells
HBsAg = assay: In vitro anti-HBV activity: HBsAg production in HBV-infected 2.2.15 cells (RIA); assay type: cell-based, Hepatitis B virus (HBV); details: for IC50: Hepatitis B virus, read-out: HBsAg IC50; for HBsAg SI: selectivity index
Description: as §1, §2

| SMILES | IC50 (HBeAg) [µg/mL] | HBeAg SI (HBeAg) | TC50 (2.2.15 cells) [µg/mL] | IC50 (HBV DNA) [µg/mL] | DNA replication SI (HBV DNA) | IC50 [1] [µg/mL] | SI [1] | TC50 [2] [µg/mL] | IC50 (HBsAg) [µg/mL] | HBsAg SI (HBsAg) |
| --- | --- | --- | --- | --- | --- | --- | --- | --- | --- | --- |
| CCOC(=O)c1c(CS(=O)(=O)c2cccc(OC)c2)n(C)c2ccc(O)c(CN3CCCC3)c12 [Example 72, Ethyl 5-hydroxy-1-methyl-4-(1-pyrrolidinylmethyl)-2-[(3-methoxyphenyl)sulfonylmethyl]-1H-indole-3-carboxylate hydrochloride] | 15.4 | 6.9 | 106.83 | 15.4 | 6.9 | – | – | – | – | – |
| CCOC(=O)c1c(CSCc2ccccc2)n(C2CC2)c2cc(Br)c(O)c(Cn3ccnc3)c12 [Example 91, Ethyl 6-bromo-1-cyclopropyl-5-hydroxy-4-[(1-imidazolyl)methyl]-2-(benzylthiomethyl)-1H-indole-3-carboxylate] | – | – | – | – | – | 15.6 (≈ 28.9 µM) | 18.77 | 293.37 (≈ 543 µM) | – | – |
| CCOC(=O)c1c(CSCc2ccc(F)cc2)n(C)c2cc(Br)c(O)c(Cn3ccnc3)c12 [Example 92, Ethyl 6-bromo-5-hydroxy-4-[(1-imidazolyl)methyl]-1-methyl-2-[(4-fluorobenzyl)thiomethyl]-1H-indole-3-carboxylate] | – | – | – | – | – | 7.81 (≈ 14.7 µM) | 2.35 | 18.34 (≈ 34.4 µM) | – | – |
| CCOC(=O)c1c(CSCc2ccc(F)cc2)n(C)c2cc(Br)c(O)c(Cn3ccnc3C)c12 [Example 100, Ethyl 6-bromo-5-hydroxy-1-methyl-4-[(2-methyl-1-imidazolyl)methyl]-2-[(4-fluorobenzyl)thiomethyl]-1H-indole-3-carboxylate] | – | – | – | – | – | 22.1 (≈ 40.4 µM) | 2.24 | 49.61 (≈ 90.8 µM) | – | – |
| CCOC(=O)c1c(CSCc2ccccc2)n(C)c2cc(Br)c(O)c(CNC(=N)N)c12 [Example 104, Ethyl 6-bromo-4-(guanidinylmethyl)-5-hydroxy-1-methyl-2-(benzylthiomethyl)-1H-indole-3-carboxylate] | – | – | – | – | – | 13.3 (≈ 26.4 µM) | 11.16 | 148.65 (≈ 294 µM) | – | – |
| CCOC(=O)c1c(C[S+]([O-])Cc2ccccc2)n(C2CC2)c2cc(Br)c(O)c(Cn3ccnc3)c12 (stereo not drawn) [Example 126, Ethyl 6-bromo-1-cyclopropyl-5-hydroxy-4-[(1-imidazolyl)methyl]-2-(benzylsulfinylmethyl)-1H-indole-3-carboxylate] | – | – | 35.61 (≈ 64 µM) | 6.36 (≈ 11.4 µM) | 5.60 | 11.1 (≈ 19.9 µM) | 4.0 | 44.19 (≈ 79.4 µM) | – | – |
| CCOC(=O)c1c(C[S+]([O-])Cc2cscn2)n(C2CC2)c2cc(Br)c(O)c(Cn3ccnc3)c12 (stereo not drawn) [Example 128, Ethyl 6-bromo-1-cyclopropyl-5-hydroxy-4-[(1-imidazolyl)methyl]-2-[(4-thiazolylmethyl)sulfinylmethyl]-1H-indole-3-carboxylate dihydrochloride] | 8.06 | 6.63 | 53.42 | – | – | – | – | – | 7.23 | 7.39 |
| CCOC(=O)c1c(CSCc2ccccc2)n(C)c2cc(Br)c(O)c(Cn3ccnc3)c12 [Example 176, Ethyl 6-bromo-5-hydroxy-4-[(1-imidazolyl)methyl]-1-methyl-2-(benzylthiomethyl)-1H-indole-3-carboxylate] | – | – | – | – | – | 15.6 (≈ 30.4 µM) | 8.0 | 125 (≈ 243 µM) | – | – |
| CCOC(=O)c1c(CS(=O)(=O)Cc2ccccc2)n(C2CC2)c2cc(Br)c(O)c(Cn3ccnc3C)c12 [Example 178, Ethyl 6-bromo-1-cyclopropyl-5-hydroxy-4-[(2-methyl-1-imidazolyl)methyl]-2-(benzylsulfonylmethyl)-1H-indole-3-carboxylate] | – | – | – | – | – | 7.81 (≈ 13.3 µM) | 10.08 | 78.75 (≈ 134 µM) | – | – |
| CCOC(=O)c1c(CS(=O)(=O)C23CC4CC(CC(C4)C2)C3)n(C)c2cc(Br)c(O)c(Cn3ccnc3C)c12 [Example 179, Ethyl 6-bromo-5-hydroxy-1-methyl-4-[(2-methyl-1-imidazolyl)methyl]-2-[(1-adamantanyl)sulfonylmethyl]-1H-indole-3-carboxylate] | 1.91 (≈ 3.16 µM) | 5.60 | 10.69 (≈ 17.7 µM) | – | – | – | – | – | 1.88 (≈ 3.11 µM) | 5.69 |
| CCOC(=O)c1c(C[S+]([O-])Cc2cscn2)n(C2CC2)c2cc(Br)c(O)c(Cn3ccnc3C)c12 (stereo not drawn) [Example 182, Ethyl 6-bromo-1-cyclopropyl-5-hydroxy-4-[(2-methyl-1-imidazolyl)methyl]-2-[(4-thiazolylmethyl)sulfinylmethyl]-1H-indole-3-carboxylate dihydrochloride] | 7.69 | 8.34 | 64.15 | – | – | – | – | – | 4.66 | 13.77 |
| CCOC(=O)c1c(CSCc2ccccc2F)n(C2CC2)c2cc(Br)c(O)c(Cn3cncn3)c12 [Example 186, Ethyl 6-bromo-1-cyclopropyl-5-hydroxy-4-[(1H-1,2,4-triazol-1-yl)methyl]-2-[(2-fluorobenzyl)thiomethyl]-1H-indole-3-carboxylate] | – | – | – | – | – | 9.17 (≈ 16.4 µM) | 6.82 | 62.5 (≈ 112 µM) | – | – |
| CCOC(=O)c1c(CSCc2ccc(F)cc2)n(C)c2cc(Br)c(O)c(Cn3cncn3)c12 [Example 187, Ethyl 6-bromo-5-hydroxy-1-methyl-4-[(1H-1,2,4-triazol-1-yl)methyl]-2-[(4-fluorobenzyl)thiomethyl]-1H-indole-3-carboxylate] | – | – | – | – | – | 26.6 (≈ 49.9 µM) | 1.66 | 44.19 (≈ 82.8 µM) | – | – |
| CCOC(=O)c1c(CSCc2ccccc2)n(C2CC2)c2cc(Br)c(O)c(CNC(=N)N)c12 [Example 188, Ethyl 6-bromo-1-cyclopropyl-4-(guanidinylmethyl)-5-hydroxy-2-(benzylthiomethyl)-1H-indole-3-carboxylate] | – | – | – | – | – | 9.85 (≈ 18.5 µM) | 4.0 | 39.37 (≈ 74.1 µM) | – | – |
| CCOC(=O)c1c(CSc2nc3ccccc3[nH]2)n(C)c2cc(Br)c(O)c(CNC(=N)N)c12 [Example 189, Ethyl 6-bromo-4-(guanidinylmethyl)-5-hydroxy-1-methyl-2-[(benzo[d]imidazol-2-yl)thiomethyl]-1H-indole-3-NL carboxylate] | 28 (≈ 52.6 µM) | 9.25 | 258.69 (≈ 487 µM) | 12.4 (≈ 23.3 µM) | 20.91 | – | – | – | 12.5 (≈ 23.6 µM) | 20.66 |
